MIC data for eight compounds are collected here from ChEMBL document CHEMBL1687784, “Frequency of spontaneous resistance to fosfomycin combined with different antibiotics in Pseudomonas aeruginosa” (2010).

Values after ≈ are worked out from the molar mass of the structure shown.

The test system of test [1] is Pseudomonas aeruginosa. Nature of the test: Antimicrobial activity against Pseudomonas aeruginosa PA14 by EUCAST method. It counts as functional.
The test system of test [2] is Pseudomonas aeruginosa. Nature of the test: Antimicrobial activity against Pseudomonas aeruginosa PA14 mutS gene hypermutant by EUCAST method. It counts as functional.

For `NCC[C@H](O)C(=O)N[C@@H]1C[C@H](N)[C@@H](O[C@H]2O[C@H](CN)[C@@H](O)[C@H](O)[C@H]2O)[C@H](O)[C@H]1O[C@H]1O[C@H](CO)[C@@H](O)[C@H](N)[C@H]1O` [AMIKACIN], the MIC in the test with Pseudomonas aeruginosa [1] and against Pseudomonas aeruginosa [2] was 1 µg/mL (≈ 1.71 µM) throughout.

`CC(C)(O/N=C(\C(=O)N[C@@H]1C(=O)N2C(C(=O)[O-])=C(C[n+]3ccccc3)CS[C@H]12)c1csc(N)n1)C(=O)O` [CEFTAZIDIME]: the MIC in the test with Pseudomonas aeruginosa [1] and in the test with Pseudomonas aeruginosa [2] was 1 µg/mL (≈ 1.83 µM) throughout.

On to `O=C(O)c1cn(C2CC2)c2cc(N3CCNCC3)c(F)cc2c1=O` [CIPROFLOXACIN], for which the MIC in the test with Pseudomonas aeruginosa [1] and with Pseudomonas aeruginosa [2] was 0.1 µg/mL (≈ 0.302 µM) each time.

For `C[C@@H]1O[C@@H]1P(=O)(O)O` [FOSFOMYCIN], the MIC in the test with Pseudomonas aeruginosa [1] and against Pseudomonas aeruginosa [2] was 8 µg/mL (≈ 57.9 µM) in each case.

`C[C@@H](O)[C@H]1C(=O)N2C(C(=O)O)=C(SCCNC=N)C[C@H]12` [IMIPENEM ANHYDROUS]: the MIC in the test on Pseudomonas aeruginosa [1] and against Pseudomonas aeruginosa [2] was 0.5 µg/mL (≈ 1.67 µM) throughout.

Consider `C[C@@H](O)[C@H]1C(=O)N2C(C(=O)O)=C(S[C@@H]3CN[C@H](C(=O)N(C)C)C3)[C@H](C)[C@H]12` [MEROPENEM], for which the minimum inhibitory concentration (MIC) against Pseudomonas aeruginosa [1] and in the test with Pseudomonas aeruginosa [2] was 0.25 µg/mL (≈ 0.652 µM) throughout.

For `NC[C@H]1O[C@H](O[C@H]2[C@H](O)[C@@H](O[C@H]3O[C@H](CO)[C@@H](O)[C@H](N)[C@H]3O)[C@H](N)C[C@@H]2N)[C@H](N)C[C@@H]1O` [TOBRAMYCIN], the minimal inhibitory concentration (MIC) against Pseudomonas aeruginosa [1] and in the test on Pseudomonas aeruginosa [2] was 1 µg/mL (≈ 2.14 µM) in each case.

For the compound COLISTIN, the MIC in the test on Pseudomonas aeruginosa [1] and in the test with Pseudomonas aeruginosa [2] was 0.5 µg/mL throughout.
